These results are taken from PMC11385767 (Heliyon, 2024).

“Also recorded” adds a separate entry of the source. No end group written: not given here.

One experiment concerns the target HLA-A*02:01 (Homo sapiens, UniProt P04439, D140Y/D185E/D98H/E176V/E277Q/G131W/G231S/I119V/I121R/I166T/I218V/L300P/L318F/N151K/N90K/P208A/P217A/Q86G/Q94H/R138H/R169H/T345S). The note with it: ref [20]; cited from earlier work.
Experiment [1] concerns the target HLA-A*11:01 on TAP-deficient T2 cell line (Homo sapiens, UniProt P04439, A114D/D185E/E176A/F33Y/L180Q/S129P/T187R). The experiment is classed as cell-based.

As to FVGEFFTDV, the “binding to HLA-A*02:01 (in words)” value with HLA-A*02:01 is “positive binding”.
With KLIMTQVSK [KLIMTQVSK], the “binding ability on T2 cell line (in words, rank)” value (“binding ability on T2 cell line” for short) in experiment [1] was “VITTDHLK ≈ STIHSIQY > KLIMTQVSK > TTDHLKFSK; also recorded: moderate binding affinity”.
Take STIHDSIQY [STIHDSIQY]: the “binding ability on T2 cell line” value in experiment [1] was “no significant difference in IC50 value; also recorded: excellent binding affinity”.
On to TTDHLKFSK [TTDHLKFSK], for which the “binding ability on T2 cell line” value in experiment [1] is recorded as “VITTDHLK ≈ STIHSIQY > KLIMTQVSK > TTDHLKFSK; also recorded: lowest binding affinity”.
Regarding VINTTDHLK [VINTTDHLK], the “binding ability on T2 cell line” value in experiment [1] was “VITTDHLK ≈ STIHSIQY > KLIMTQVSK > TTDHLKFSK; also recorded: excellent binding affinity”.
